Test results reported in patent US6534311B2, “Drosophila melanogaster p70S6 kinase” (Novartis AG, priority 1996, dated 2003).

Columns and labels:
[1] = system: S6 kinase activity in S2 cells; type: cell-based, Drosophila; conditions: S2 cells treated with 100 μM cycloheximide for two hours
Procedure: (§1) Cell extracts are prepared and Drosophila p70^S6K activity is measured as previously described (28) or following immunoprecipitation (Lane, H. A., et al. (1992) EMBO J 11, 1743-1749) with the D20 antibody (2.5 μg).
S2 cells are plated at 5×10^7 cells per 15 cm dish in Schneider's medium supplemented with antibiotic and 10% foetal calf serum. After 24 h, cells are changed to Schneider's medium without serum and after an additional 36 h, 5 plates of cells are treated with 100 μM cycloheximide for two hours with or without pretreatment with […] rapamycin for 15 min. Cell extracts are prepared by dounce homogenisation in Extraction buffer lacking PNPP as described in Reinhard et al., above. Briefly, each extract is centrifuged for 30 min at 3×105 g, filtered through a 0.2 μm membrane (Millipore), and applied at a flow rate of 0.5ml per min to a 1 ml Mono Q column (Pharmacia) equilibrated in Buffer F (Kozma, S.C., et al. (1989) EMBO J 8, 4125-4132). The column is washed with 10 ml of Buffer F, developed at 0.5 ml per min with a 30 ml gradient from 0-0.5M NaCl in the same buffer, and each fraction is diluted 20-fold and assayed for kinase activity. Factions 16-19 are concentrated on 100 μl of FFQ Sepharose and eluted with 300 μl of 0.5M NaCl in Buffer F. […]

Drosophila p70S6K = test: S6 kinase activity immunoprecipitated with D20 antibody from concentrated Mono Q fractions; type: cell-based, Drosophila melanogaster; conditions: cycloheximide-treated S2 cells, D20 immunoprecipitate and Western blot mobility
Procedure: as §1
S2 cells are plated at 5×10^7 cells per 15 cm dish in Schneider's medium supplemented with antibiotic and 10% foetal calf serum. After 24 h, cells are changed to Schneider's medium without serum and after an additional 36 h, 5 plates of cells are treated with 100 μM cycloheximide for two hours with or without pretreatment with […] rapamycin for 15 min. Cell extracts are prepared by dounce homogenisation in Extraction buffer lacking PNPP as described in Reinhard et al., above. […]
To distinguish between these rapamycin sensitive and insensitive S6 kinase activities and to determine whether either represented Drosophila p70^S6K, extracts from cycloheximide-stimulated S2 cells, pretreated with or without rapamycin, are fractionated by Mono Q chromatography. The fractions eluted from the Mono Q column are monitored by A280 and subjected to an in vitro S6 kinase assay. […] The concentrated samples from cells treated with cycloheximide either in the absence or presence of rapamycin pretreatment, are either immunoprecipitated and assayed for S6 kinase activity or analysed on Western blots employing the D20 antibody. […]

## C[C@@H]1C[C@@H]([C@H](O)CC2CC(=O)NC(=O)C2)C(=O)[C@@H](C)C1 [cycloheximide]
[1]
  increase of S6 kinase activity over basal levels: 2.2 fold
Drosophila p70S6K
  activation of Drosophila p70S6K: induces the activation
